Results reported in PMC6114901, “An automated screening method for detecting compounds with goitrogenic activity using transgenic zebrafish embryos” (PLoS ONE, 2018).
Like-named read-outs stand apart in the source and are kept apart here.

Legend:
[1] = test system: thyroglobulin (tg:mCherry reporter gene); set-up: method as in PMID 25962731; details: manual positioning and image analysis; cited from earlier work
[2] = ref chemspider (http://www.chemspider.com); cited from earlier work
[3] = test system: thyroglobulin (tg:mCherry reporter gene); test: animal or person; details: for EC50: Danio rerio, read-out: EC50 (tg:mCherry induction)
Protocol: In order to avoid interference of test chemicals with early thyroid gland development, zebrafish embryos were cultured in exposure medium until 48 hours post fertilization (hpf). Subsequently, they were exposed to seven known thyroid endocrine disrupters for 3 days (48 to 120 hpf). The non-goitrogenic compound 3,4-dichloroaniline, that is used as reference compound in the zebrafish acute embryo toxicity test was used as negative control. […] No solvents were used. […] Five concentrations and one control were tested per compound and replicate. In the second replicate the range of concentration was adjusted to improve fitting of concentration-response curves. […] Given the lack of appropriate spectral properties stability of exposure concentrations was not analysed for potassium perchlorate. Embryos were kept in the incubator at 26°C and a 14:10 hours light:dark cycle. The exposure was conducted in crystallisation dishes covered with watchmaker glasses with 30 embryos in 30 ml exposure medium (for exposure medium refer to [26]).
Embryos were positioned ventrally toward the microscope objective. Per embryo a bright field image, an autofocus fluorescence image and a Z-stack of 9 images were obtained. The Z-stack was required in case of autofocus failure and manual selection of the focal plane. Fluorescence images were obtained with 400 ms of fluorescent light exposure at maximal light intensity and a gain of 1. […] However, care was taken, that at least 10 images per concentration and replicates were assessed. To avoid a time bias during the analysis the sequence of wells for analysis was arranged in order to obtain a uniform distribution over the entire period of analysis.
The images were analysed using a KNIME workflow (Version 3.3.3., [29]) with the extension “KNIME image processing”. In brief, images were loaded into the workflow and the background was removed automatically using the “rolling ball” procedure of the image J plugin (rolling ball size set to 50 pixels). Subsequently the area containing the thyroid gland was manually selected by drawing a rectangle around the appropriate region using the interactive annotation node. […] If possible the autofocus images were used. In case that the thyroid gland was out of focus due to the presence of autofluorescing pigment cells, an appropriate image from the Z-stack was selected. All subsequent steps were conducted without any user interaction. […] Finally the sum of pixel (reflecting area of the thyroid gland and intensity of fluorescence) was calculated for the labeled area and used as a proxy of fluorescence intensity (see Fig 1 for an overview of the workflow). For each replicate the sum was of pixels was normalized by setting controls to the value of one. For data of individual embryos see S4 Table. The KNIME workflow used for image analysis is provided as supplement file (S1 Workflow).
To characterize the potency of the investigated goitrogenic compounds, we calculated EC50 values of tg:mcherry fluorescence using the pixel sum obtained from image analysis. For each replicate the fluorescence intensity was normalized by dividing the mean fluorescence intensity of each concentration with the mean control fluorescence intensity. Concentration-response curves of tgmcherry fluorescence were fitted to the data using the Hill-slope equation (Eq 1) and used to estimate EC50 values.
The parameter Min was set to 1 and the slope (p) and the maximum fluorescence (Max) were estimated.

zebrafish embryos [4] = details: read-out: LC50 (48–120 hpf); mortality; ref Fetter et al. [22]; cited from earlier work
[5] = test system: thyroid hormone levels (T4); details: cited from earlier work; for EC50: read-out: EC50 T4 reduction, reduction of thyroid hormone levels (immunostaining)
zebrafish embryos [6] = test: in vivo
Protocol: (§1) Fish embryo acute toxicity tests were performed similar as described previously, using 10 or 25 embryos per concentration and replicate exposed in crystallization dishes from 48 to 120 hpf. No exchange of exposure media was performed. Lethality was identified by coagulation, missing heartbeat, a non–detached tail and/or missing of somites. Raw data for mortality and phenotypic assessment are provided as S1 Table. Concentration-response curves for mortality are shown in S2 Fig.

in vivo = details: zebrafish, in vivo, LC50 (48–120 hpf), mortality, embryos exposed 48–120 hpf
Protocol: as §1

[7] = 72 hpf, 987.65 µmol/L, replicate 2, 10 embryos
[8] = 72 hpf, 1481.48 µmol/L, replicate 2, 10 embryos
[9] = 72 hpf, 2222.22 µmol/L, replicate 2, 10 embryos
[10] = 72 hpf, 3333.33 µmol/L, replicate 2, 10 embryos
[11] = 72 hpf, 5000.00 µmol/L, replicate 2, 10 embryos
[12] = 96 hpf, 987.65 µmol/L, replicate 2, 10 embryos
[13] = 96 hpf, 1481.48 µmol/L, replicate 2, 10 embryos
[14] = 96 hpf, 2222.22 µmol/L, replicate 2, 10 embryos
[15] = 96 hpf, 3333.33 µmol/L, replicate 2, 10 embryos
[16] = 96 hpf, 5000.00 µmol/L, replicate 2, 10 embryos
[17] = 120 hpf, 937.50 µmol/L, replicate 1, 25 embryos
[18] = 120 hpf, 987.65 µmol/L, replicate 2, 10 embryos
[19] = 120 hpf, 1481.48 µmol/L, replicate 2, 10 embryos
[20] = 120 hpf, 1875.00 µmol/L, replicate 1, 25 embryos
[21] = 120 hpf, 2222.22 µmol/L, replicate 2, 10 embryos
[22] = 120 hpf, 3333.33 µmol/L, replicate 2, 10 embryos
[23] = 120 hpf, 3750.00 µmol/L, replicate 1, 25 embryos
[24] = 120 hpf, 5000.00 µmol/L, replicate 2, 10 embryos
[25] = 120 hpf, 7500.00 µmol/L, replicate 1, 25 embryos
[26] = 120 hpf, 15000.00 µmol/L, replicate 1, 25 embryos

Cn1cc[nH]c1=S [Methimazole, methimazole]
EC50 [1]: 551 µM | Log D (pH 7.4) [2]: -0.11 | EC50 [3]: 279 µM | BMD 20 ([3]; zebrafish, in vivo): 186 µM | Slope ([3]; zebrafish, in vivo): 3.3 | TDI ([3]; zebrafish, in vivo): 103 | LC50 (zebrafish embryos [4]): 28800 µM | EC50 ([5]; ref Thienpont et al. [13]): 290 µM | TDI (T4) ([5]; zebrafish, in vivo): 75

Oc1cccc(O)c1 [Resorcinol, resorcinol]
Log D (pH 7.4) [2]: 0.86 | No Surviving (zebrafish embryos [6]; [7]): 10 | No hatched (zebrafish embryos [6]; [7]): 9 | No Surviving (zebrafish embryos [6]; [8]): 10 | No hatched (zebrafish embryos [6]; [8]): 10 | No Surviving (zebrafish embryos [6]; [9]): 10 | No hatched (zebrafish embryos [6]; [9]): 9 | No Surviving (zebrafish embryos [6]; [10]): 10 | No hatched (zebrafish embryos [6]; [10]): 10 | Total Sublethal (zebrafish embryos [6]; [10]): 6 | Ydef (yolk deformation) (zebrafish embryos [6]; [10]): 6 | No Surviving (zebrafish embryos [6]; [11]): 10 | No hatched (zebrafish embryos [6]; [11]): 10 | Total Sublethal (zebrafish embryos [6]; [11]): 8 | Ydef (yolk deformation) (zebrafish embryos [6]; [11]): 8 | No Surviving (zebrafish embryos [6]; [12]): 10 | No hatched (zebrafish embryos [6]; [12]): 10 | No Surviving (zebrafish embryos [6]; [13]): 10 | No hatched (zebrafish embryos [6]; [13]): 10 | Total Sublethal (zebrafish embryos [6]; [13]): 1 | Ydef (yolk deformation) (zebrafish embryos [6]; [13]): 1 | No Surviving (zebrafish embryos [6]; [14]): 10 | No hatched (zebrafish embryos [6]; [14]): 10 | Total Sublethal (zebrafish embryos [6]; [14]): 2 | Ydef (yolk deformation) (zebrafish embryos [6]; [14]): 2 | No Surviving (zebrafish embryos [6]; [15]): 10 | No hatched (zebrafish embryos [6]; [15]): 10 | Total Sublethal (zebrafish embryos [6]; [15]): 5 | Ydef (yolk deformation) (zebrafish embryos [6]; [15]): 2 | mch (malformation of chorda/scoliosis) (zebrafish embryos [6]; [15]): 5 | No Surviving (zebrafish embryos [6]; [16]): 10 | No hatched (zebrafish embryos [6]; [16]): 10 | Total Sublethal (zebrafish embryos [6]; [16]): 10 | Ydef (yolk deformation) (zebrafish embryos [6]; [16]): 7 | nobc (no blood circulation) (zebrafish embryos [6]; [16]): 2 | nomov (no spontaneous movement) (zebrafish embryos [6]; [16]): 10 | No Surviving (zebrafish embryos [6]; [17]): 25 | k/f (coagulated) (zebrafish embryos [6]; [17]): 0 | No Surviving (zebrafish embryos [6]; [18]): 10 | No hatched (zebrafish embryos [6]; [18]): 10 | EdY / EdP (heart or yolk sac edema) (zebrafish embryos [6]; [19]): 1 | No Surviving (zebrafish embryos [6]; [19]): 10 | No hatched (zebrafish embryos [6]; [19]): 10 | Total Sublethal (zebrafish embryos [6]; [19]): 1 | Ydef (yolk deformation) (zebrafish embryos [6]; [19]): 1 | No Surviving (zebrafish embryos [6]; [20]): 25 | k/f (coagulated) (zebrafish embryos [6]; [20]): 0 | nomov (no spontaneous movement) (zebrafish embryos [6]; [20]): 25 | EdY / EdP (heart or yolk sac edema) (zebrafish embryos [6]; [21]): 1 | No Surviving (zebrafish embryos [6]; [21]): 10 | No hatched (zebrafish embryos [6]; [21]): 10 | Total Sublethal (zebrafish embryos [6]; [21]): 2 | Ydef (yolk deformation) (zebrafish embryos [6]; [21]): 2 | No Surviving (zebrafish embryos [6]; [22]): 10 | No hatched (zebrafish embryos [6]; [22]): 10 | Total Sublethal (zebrafish embryos [6]; [22]): 5 | Ydef (yolk deformation) (zebrafish embryos [6]; [22]): 5 | mch (malformation of chorda/scoliosis) (zebrafish embryos [6]; [22]): 4 | EdY / EdP (heart or yolk sac edema) (zebrafish embryos [6]; [23]): 25 | No Surviving (zebrafish embryos [6]; [23]): 25 | Total Sublethal (zebrafish embryos [6]; [23]): 25 | k/f (coagulated) (zebrafish embryos [6]; [23]): 0 | EdY / EdP (heart or yolk sac edema) (zebrafish embryos [6]; [24]): 8 | No Surviving (zebrafish embryos [6]; [24]): 7 | No hatched (zebrafish embryos [6]; [24]): 10 | Total Sublethal (zebrafish embryos [6]; [24]): 7 | Ydef (yolk deformation) (zebrafish embryos [6]; [24]): 8 | mch (malformation of chorda/scoliosis) (zebrafish embryos [6]; [24]): 3 | nobc (no blood circulation) (zebrafish embryos [6]; [24]): 10 | nohb (no heartbeat) (zebrafish embryos [6]; [24]): 3 | nomov (no spontaneous movement) (zebrafish embryos [6]; [24]): 10 | No Surviving (zebrafish embryos [6]; [25]): 0 | k/f (coagulated) (zebrafish embryos [6]; [25]): 25 | No Surviving (zebrafish embryos [6]; [26]): 0 | k/f (coagulated) (zebrafish embryos [6]; [26]): 25 | LC10 (zebrafish embryos [6]; mortality after 72 h of exposure, S2 Fig, unit not given, in µM): 4701 | Slope (zebrafish embryos [6]; mortality concentration-response curve, 72 h of exposure): 21.9 | LC50 (in vivo): 5200 µM | EC50 [3]: 3.4 µM | BMD 20 ([3]; zebrafish, in vivo): 0.663 µM | Slope ([3]; zebrafish, in vivo): 0.78 | TDI ([3]; zebrafish, in vivo): 1529 | effect on tg:mCherry fluorescence ([3]; zebrafish, in vivo): weaker induction or repression of fluorescence | EC50 ([5]; ref Thienpont et al. [13]): 82 µM | TDI (T4) ([5]; thyroid disruption index based on T4 reduction, ref Thienpont et al. [13]): 62
